In patent publication US20240262803A1, “COMPOUNDS, COMPOSITIONS AND METHODS OF TREATING DISORDERS” (Chungdu Anticancer Bioscience Ltd, priority 2021, published 2024):

Columns and labels:
[1] = tested on: RPEMYC^H2B-GFP cells; test: Mechanism-informed phenotypic screening assay (mitotic arrest, polyploidy; GE IN-Cell Analyzer 2000); type: cell-based; conditions: 20 nM to 20 μM, 24, 48 or 72 hours, read-out: Min. Effective conc. for polyploidy (≥5%)
Outline: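 Cells expressing Histone 2B-EGFP (RPEMYC^H2B-GFP) were plated 18-24 h before exposure to compounds at 20 nM to 20 μM. At 24, 48 or 72 h, imaging scored mitotic arrest or change in DNA content. Value is the lowest concentration giving polyploid accumulation at 48 h.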

[2] = tested on: lung cancer cell line NCI-H23; test: MTT assay of cellular proliferation, NCI-H23; type: cell-based; conditions: Homo sapiens, read-out: EC50: Concentration that inhibits 50% of proliferation
Outline: (§1)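 In this viability read-out, mitochondrial reductase converts MTT to formazan, measured at 570 nm after 3˜4 h. Cells are treated at 20˜30% confluence with 1 nM to 10 μM compound, and the EC50 is the concentration halving proliferation.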

[3] = tested on: lung cancer cell line NCI-H2170; test: MTT assay of cellular proliferation, NCI-H2170; type: cell-based; conditions: Homo sapiens, read-out: EC50: Concentration that inhibits 50% of proliferation
Method: (§2) Six lung cancer cell lines (NCI-H23, NCI-H460, NCI-H596, NCI-H2170, Calu-6 and A549), two colon cancer cell lines (HCT116 and SW460), one breast cancer cell line MDA-MB-231, one gastric cancer cell line NCI-N87, one prostate cancer cell line DU145, one cervical cancer cell line Hela, and one glioblastoma cell line T98G were obtained from ATCC. The T2 HCC cell line was derived from a mouse liver cancer model initiated by a transgene of MYC (Reference). All cell lines were cultured in DMEM (Gibco, Cleveland, TN, USA) supplemented with 5% fetal bovine serum (Gibco), penicillin (100 U/mL)-streptomycin (100 μg/mL) (Gibco, Cat. No. 15140-122), 2 mM L-glutamine (Gibco, 200 mM solution, Cat. No. 25030081), and 1 mM sodium pyruvate (Gibco, 100 mM solution, Cat. No. 11360070) at 37° C. in a humidified incubator that was maintained at 5% CO2.
(§3) The MTT assay measures cellular metabolic activity as a proxy for cell viability and involves the conversion of the water-soluble yellow dye MTT [3-(4,5-dimethylthiazol-2-yl)-2,5-diphenyltetrazolium bromide] into an insoluble purple formazan by the action of mitochondrial reductase. Formazan is then solubilized and its concentration is determined by measuring the optical density (OD) value at a wavelength of 570 nm. The value is in proportional to the number of live cells with excellent linearity up to ˜10^6 cells per well. The MTT assay was used to determine the EC50 value, the concentration of a compound that leads to 50% inhibition of cellular proliferation. Briefly, cells were split when growing to the mid-Log phase. Cells in 100 μL of culture medium were seeded into each well of 96-well microplates and cultivated for 15˜24 hours to reach a confluence of 20˜30% and were then exposed to drugs at concentrations ranging from 1 nM to 10 μM. At the endpoint, 20 μL of a MTT stock solution in DMSO (5 mg/mL) was added to each well that contains […] of DMEM. The microplates were left in the cell culture incubator for 3˜4 h before subjected to solubilization and determination of formazan at A570 in a microplate reader (BioTek ELX808iu). […] Therefore, these compounds might hold a broad utility in the treatment of a large variety of human malignancies.

[4] = tested on: lung cancer cell line A549; test: MTT assay of cellular proliferation, A549; type: cell-based; conditions: Homo sapiens, read-out: EC50: Concentration that inhibits 50% of proliferation
Outline: as §1

[5] = tested on: colon cancer cell line HCT116; test: MTT assay of cellular proliferation, HCT116; type: cell-based; conditions: Homo sapiens, HCT-116, read-out: EC50: Concentration that inhibits 50% of proliferation
Outline: as §1

[6] = tested on: gastric cancer cell line NCI-N87; test: MTT assay of cellular proliferation, NCI-N87; type: cell-based; conditions: Homo sapiens, read-out: EC50: Concentration that inhibits 50% of proliferation
Outline: as §1

[7] = tested on: prostate cancer cell line DU145; test: MTT assay of cellular proliferation, DU145; type: cell-based; conditions: Homo sapiens, DU-145, read-out: EC50: Concentration that inhibits 50% of proliferation
Method: as §2, §3

[8] = tested on: cervical cancer cell line Hela; test: MTT assay of cellular proliferation, Hela; type: cell-based; conditions: Homo sapiens, read-out: EC50: Concentration that inhibits 50% of proliferation
Outline: as §1

[9] = tested on: glioblastoma cell line T98G; test: MTT assay of cellular proliferation, T98G; type: cell-based; conditions: Homo sapiens, read-out: EC50: Concentration that inhibits 50% of proliferation
Method: as §2, §3

[10] = tested on: liver cancer cell line T2 HCC; test: MTT assay of cellular proliferation, T2 HCC; type: cell-based; conditions: Mus musculus, read-out: EC50: Concentration that inhibits 50% of proliferation
Outline: as §1

[11] = tested on: lung cancer cell line NCI-H460; test: Minimal effective concentration that elicits polyploidy, NCI-H460; type: cell-based, human
[12] = tested on: lung cancer cell line NCI-H596; test: Minimal effective concentration that elicits polyploidy, NCI-H596; type: cell-based, human
[13] = tested on: lung cancer cell line A549; test: Minimal effective concentration that elicits polyploidy, A549; type: cell-based; conditions: Homo sapiens, read-out: MECP: Minimal effective concentration that elicits polyploidy
[14] = tested on: glioblastoma cell line T98G; test: Minimal effective concentration that elicits polyploidy, T98G; type: cell-based, human
[15] = tested on: breast cancer cell line MDA-MB-231; test: Minimal effective concentration that elicits polyploidy, MDA-MB-231; type: cell-based; conditions: Homo sapiens, read-out: MECP: Minimal effective concentration that elicits polyploidy
[16] = tested on: cervical cancer cell line Hela; test: Minimal effective concentration that elicits polyploidy, Hela; type: cell-based; conditions: Homo sapiens, read-out: MECP: Minimal effective concentration that elicits polyploidy
[17] = tested on: gastric cancer cell line NCI-N87; test: Minimal effective concentration that elicits polyploidy, NCI-N87; type: cell-based; conditions: Homo sapiens, read-out: MECP: Minimal effective concentration that elicits polyploidy
[18] = tested on: lung cancer cell line Calu-6; test: Minimal effective concentration that elicits polyploidy, Calu-6; type: cell-based, human
[19] = tested on: liver cancer cell line T2 HCC; test: Minimal effective concentration that elicits polyploidy, T2 HCC; type: cell-based; conditions: Mus musculus, read-out: MECP: Minimal effective concentration that elicits polyploidy

Row | Compound | minimal effective concentration [1] [µM] | EC50 [2] [µM] | EC50 [3] [µM] | EC50 [4] [µM] | EC50 [5] [µM] | EC50 [6] [µM] | EC50 [7] [µM] | EC50 [8] [µM] | EC50 [9] [µM] | EC50 [10] [µM] | MECP: Minimal effective concentration that elicits polyploidy [11] | MECP: Minimal effective concentration that elicits polyploidy [12] | minimal effective concentration [13] [µM] | MECP: Minimal effective concentration that elicits polyploidy [14] | minimal effective concentration [15] [µM] | minimal effective concentration [16] [µM] | minimal effective concentration [17] [µM] | MECP: Minimal effective concentration that elicits polyploidy [18] | minimal effective concentration [19] [µM]
1 | COC(=O)c1cc(Oc2ncccc2-c2ccncc2)cc(C(=O)OC)c1 [Compound 1, Dimethyl 5-([3,4′-bipyridin]-2-yloxy)isophthalate] | 1 | 0.001 to 1 | 0.001 to 1 | 10 to 30 | 0.001 to 1 | 0.001 to 1 | 0.001 to 1 | 0.001 to 1 | 0.001 to 1 | 0.001 to 1 | B (B: 1 μM < conc. ≤ 10 μM) | A (A: 1 nM < conc. ≤ 1 μM) | 1 to 10 | A (A: 1 nM < conc. ≤ 1 μM) | 0.001 to 1 | 0.001 to 1 | 0.001 to 1 | A (A: 1 nM < conc. ≤ 1 μM) | 0.001 to 1
2 | COC(=O)c1cc(OC)cc(Oc2ncccc2-c2ccncc2)c1 [Compound 2, Methyl 3-([3,4′-bipyridin]-2-yloxy)-5-methoxybenzoate] | 1 | 0.001 to 1 | 0.001 to 1 | 10 to 30 | 0.001 to 1 | 0.001 to 1 | 0.001 to 1 | 0.001 to 1 | 0.001 to 1 | 0.001 to 1 | B (B: 1 μM < conc. ≤ 10 μM) | A (A: 1 nM < conc. ≤ 1 μM) | 1 to 10 | A (A: 1 nM < conc. ≤ 1 μM) | 0.001 to 1 | 0.001 to 1 | 0.001 to 1 | A (A: 1 nM < conc. ≤ 1 μM) | 0.001 to 1
3 | COC(=O)c1cc(Oc2ncccc2-c2ccnc(N)n2)cc(C(=O)OC)c1 [Compound 21, dimethyl 5-((3-(2-aminopyrimidin-4-yl)pyridin-2-yl)oxy)isophthalate] | 1 | 0.001 to 1 | 0.001 to 1 | – | 0.001 to 1 | 0.001 to 1 | 0.001 to 1 | 0.001 to 1 | 1 to 10 | 0.001 to 1 | B (B: 1 μM < conc. ≤ 10 μM) | A (A: 1 nM < conc. ≤ 1 μM) | – | B (B: 1 μM < conc. ≤ 10 μM) | 0.001 to 1 | 0.001 to 1 | 0.001 to 1 | A (A: 1 nM < conc. ≤ 1 μM) | 0.001 to 1
4 | COC(=O)c1cc(OC)cc(Oc2ncccc2-c2ccnc(N)n2)c1 [Compound 23, Methyl 3-((3-(2-aminopyrimidin-4-yl)pyridin-2-yl)oxy)-5-methoxybenzoate] | 1 | 0.001 to 1 | 0.001 to 1 | 10 to 30 | 0.001 to 1 | 0.001 to 1 | 0.001 to 1 | 0.001 to 1 | 10 to 30 | 1 to 10 | B (B: 1 μM < conc. ≤ 10 μM) | A (A: 1 nM < conc. ≤ 1 μM) | 1 to 10 | A (A: 1 nM < conc. ≤ 1 μM) | 0.001 to 1 | 0.001 to 1 | 0.001 to 1 | A (A: 1 nM < conc. ≤ 1 μM) | 0.001 to 1
